Measurements as given in patent US20250129055A1, “GLUCOSIDE DERIVATIVE, AND PREPARATION METHOD THEREFOR AND APPLICATION THEREOF” (BEIJING INCREASE INNOVATIVE DRUG CO., LTD., priority 2020, published 2025).

Target: SGLT2 (Homo sapiens (Human), UniProt P31639)
Assay: In vitro SGLT2 inhibitory activity: 1-NBDG uptake by CHO-SGLT2 cells
Format: cell-based
Details: for IC50: CHO-SGLT2 cells, 1-NBDG uptake, read-out: IC50 inhibiting SGLT2
Method: The effect of the compounds on SGLT2-mediated glucose uptake was investigated by establishing an SGLT2 overexpression cell model and using the fluorescent glucose (2-deoxy-1-[(7-nitro-2,1,3-benzoxadiazol-4-yl)amino]-D-glucose, 1-NBDG) tracer method to screen out candidate compounds with SGLT2 inhibitory activity.
The humanized SGLT2 overexpression cells (CHO-SGLT2) constructed from Chinese hamster ovary (CHO) cells were cultured in 1640 medium (Gibco) containing 10% fetal bovine serum (Gibco, 10270), subcultured at a ratio of 1:3, and replaced with new culture medium 3 times every week. Fluorescence detection cell culture plates and other culture flasks were purchased from Corning Company. […] Appropriate amounts of all compounds were weighed, prepared into 100 mM stock solutions with DMSO, and stored at 4° C. in the dark.
Before the 1-NBDG uptake test, CHO-SGLT2 cells were digested and seeded in a 96-well cell culture plate with a cell number of 40,000/well. After the cells were cultured for 48 h, the medium was discarded, and 100 μl of choline buffer was added to each well. After the cells were starved at 37° C. for 30 min, the choline buffer was discarded and 100 μl of the newly prepared Na^+ sodium buffer containing […] 1-NBDG and the test compounds (Compound) was added. The solvent DMSO was used as the negative control (Control) for the test compounds.
The Na^+ sodium buffer without 1-NBDG was used as the blank control (Blank). After 1 h of culture, the incubation solution was discarded. The cells were washed with choline buffer solution 3 times, and then 50 μl of neutral lysate was added to each well to lyse the cells on ice for 10 min. The fluorescence value of each well was detected using a multi-functional microplate reader at […].
At least 3 experimental replicates were set for each compound at indicated concentrations, and the data were expressed as mean±SEM. Uptake amount of 1-NBDG by cells=fluorescence value1-NBDG-fluorescence valueBlank. Inhibition rate on uptake amount of SGLT2 glucose (%)=(uptake amountcontrol−uptake amountcompound)/uptake amountcontrol×100%. Concentration-inhibition rate curves were plotted using Graphpad Prism software, and IC50 values were calculated accordingly.

Chain of SGLT2 (P31639 whole entry): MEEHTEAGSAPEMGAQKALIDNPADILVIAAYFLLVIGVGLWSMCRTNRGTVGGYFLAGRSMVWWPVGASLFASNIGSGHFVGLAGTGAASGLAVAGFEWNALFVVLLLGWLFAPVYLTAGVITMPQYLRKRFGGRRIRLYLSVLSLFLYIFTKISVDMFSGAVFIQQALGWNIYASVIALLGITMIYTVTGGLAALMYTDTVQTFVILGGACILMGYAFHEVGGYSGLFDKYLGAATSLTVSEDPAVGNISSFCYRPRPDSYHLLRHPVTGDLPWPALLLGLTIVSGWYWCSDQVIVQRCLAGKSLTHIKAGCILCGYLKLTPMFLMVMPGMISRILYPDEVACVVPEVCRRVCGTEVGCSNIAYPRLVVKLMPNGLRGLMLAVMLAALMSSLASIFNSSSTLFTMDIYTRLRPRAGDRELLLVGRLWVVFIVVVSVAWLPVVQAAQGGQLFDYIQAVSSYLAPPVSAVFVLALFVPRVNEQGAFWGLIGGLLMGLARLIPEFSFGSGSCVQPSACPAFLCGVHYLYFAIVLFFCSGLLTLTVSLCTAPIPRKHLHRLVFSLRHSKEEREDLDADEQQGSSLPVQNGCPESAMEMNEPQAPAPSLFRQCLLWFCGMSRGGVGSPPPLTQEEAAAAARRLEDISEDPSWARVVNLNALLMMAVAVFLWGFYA

CCOc1ccc(Oc2cc([C@H]3O[C@H](CO)[C@@H](O)[C@H](O)[C@H]3O)ccc2Cl)cc1 [Compound 3, (2R,3R,4R,5S,6R)-2-[4-chloro-3-(4-ethoxyphenoxy)phenyl]-6-(hydroxymethyl)oxane-3,4,5-triol]
IC50: 6.75 nM | Inhibition rate of compounds on SGLT2 (%) (compound concentration 1 × 10^−5 mol/L): 96.4 ± 8.4% | Inhibition rate of compounds on SGLT2 (%) (compound concentration 5 × 10^−7 mol/L): 78.7 ± 1.9% | Inhibition rate of compounds on SGLT2 (%) (compound concentration 5 × 10^−8 mol/L): 71.7 ± 1.7% | Inhibition rate of compounds on SGLT2 (%) (compound concentration 5 × 10^−9 mol/L): 42.8 ± 2.3% | Inhibition rate of compounds on SGLT2 (%) (compound concentration 5 × 10^−10 mol/L): 8.7 ± 2.1% | Inhibition rate of compounds on SGLT2 (%) (compound concentration 5 × 10^−11 mol/L): 3.7 ± 4.2%

CS[C@H]1O[C@@H](c2cc3c(c(Cc4ccc5c(c4)OCCO5)c2)CCC3)[C@H](O)[C@@H](O)[C@@H]1O [Compound 5]
IC50: 2.26 nM

CS[C@H]1O[C@@H](c2ccc(C)c(Cc3ccc4c(c3)CCCO4)c2)[C@H](O)[C@@H](O)[C@@H]1O [Compound 8]
IC50: 0.356 nM

CS[C@H]1O[C@@H](c2ccc(C)c(Cc3ccc4c(c3)CC4)c2)[C@H](O)[C@@H](O)[C@@H]1O [Compound 12]
IC50: 1.01 nM

OC[C@H]1O[C@@H](c2ccc(F)c(Cc3ccc4c(c3)OCCO4)c2)[C@H](O)[C@@H](O)[C@@H]1O [Compound 27]
IC50: 3.32 nM
